Measurements: US9370764B2, “Compositions and particles containing cellulosic fibers and stabilized-and/or activated-urease inhibitors, as well as methods of making and using the same” (INTERNATIONAL PAPER COMPANY, priority 2007, dated 2016)

Experiment: On-shelf aging of PPDA treated pulp at room conditions
Assay type: physicochemical
Settings: pulp treated with 400 ppm PPDA
Protocol: Bleached softwood pulps that were treated with 400 ppm PPDA was stored on shelf as dry pulp in ambient conditions for 18 weeks and 20 weeks. The aged pulp samples were then fluffed and tested for ammonia generation by bacteria as in Example 1.
Aging test was also conducted on-shelf in the bag at room conditions. The result was shown in Table 12, and plotted in FIG. 5 in log scale.

NP(N)(=O)Oc1ccccc1 [PPDA, phenylphosphorodiamidate]
PPDA remaining on the pulp (HPLC) (stored on shelf as dry pulp in ambient conditions for 18 weeks): trace amount | PPDA remaining on the pulp (HPLC) (stored on shelf as dry pulp in ambient conditions for 20 weeks): no PPDA remaining
